Patent US7094799B2, “Polymorphs of bicifadine hydrochloride” (DOV Pharmaceutical, Inc., priority 2002, dated 2006)
Counter-ions that a name gives are not always drawn.

Experiments:
Type in all cases: physicochemical
[1] = Solubility in organic solvents; conditions: room temperature; become soluble when heated
Protocol: However, they become soluble when heated. In accordance with this conversion, the polymorph form A crystals of bicifadine hydrochloride are mixed with an organic solvent, having a boiling point of at least 50° C. to form a slurry. In carrying out this conversion any conventional organic solvent having a boiling point of at least 50° C. can be utilized. The slurry is then heated to a temperature at which said slurry is a clear solution, and this solution is cooled to a temperature of at most about 35° C., preferably between about 0° C. to about 20° C. The cooled solution is maintained at a temperature of at most about 35° C. for a period of time sufficient to allow said polymorph B to form as a pure crystalline form free from the presence of the polymorph form A. If desired, cooling can be carried out with stirring. During cooling the mixture should be monitored to allow sufficient time for crystalline polymorph B to form from the mixture.

[2] = Thermodynamic stability of polymorphic forms; conditions: form B compared with form A; hydrochloride
[3] = Stability of the polymorphic form on grinding (Retsch Mixer Mill, XRPD analysis); conditions: Retsch Mixer Mill MM 200, stainless steel ball, 30/s, 5-minute intervals, total of 20 minutes; hydrochloride
Protocol: The X-ray powder diffraction (XRPD) analyses of polymorphic forms A and B of racemic bicifadine hydrochloride were performed with a Shimadzu XRD-6000 X-ray powder diffractometer using Cu Kα radiation. The bicifadine was loaded onto the machine as a crystalline powder. The instrument was equipped with a fine focus X-ray tube. The tube voltage and amperage were set to 40 kV and 40 mA, respectively. The divergence and scattering slits were set at 1° and the receiving slit was set at 0.15 mm. Diffracted radiation was detected by a NaI scintillation detector. A theta-two theta continuous scan at 3°/min (0.4 sec/0.02° step) from 2.5 to 40°2θ was used. A silicon standard was analyzed to check the instrument alignment. Data were collected and analyzed using XRD-6000 v. 4.1.
Form A bicifadine hydrochloride (207 mg) was charged to a small stainless steel cylinder. A stainless steel ball was added, the cylinder capped, and the unit shaken on a Retsch Mixer Mill (Type MM 200) at 5-minute intervals at a frequency of 30/s for a total of 20 minutes. The milled material was then removed and analyzed by XRPD.
Form B bicifadine hydrochloride (111 mg) was charged to a small stainless steel cylinder. […] The milled material was then removed and analyzed by XRPD.

solubility in organic solvents [1] | polymorphic form after grinding (XRPD) [3] | SMILES | thermodynamic stability of crystal form [2]
poorly soluble | partial conversion to form B | Cc1ccc(C23CNCC2C3)cc1 (racemic) [Form A bicifadine hydrochloride, (±)-1-(4-methylphenyl)-3-azabicyclo[3.1.0]-hexane hydrochloride] | not the most thermodynamically stable polymorphic form
– | remained form B | Cc1ccc(C23CNCC2C3)cc1 (racemic) [Form B bicifadine hydrochloride, (±)-1-(4-methylphenyl)-3-azabicyclo[3.1.0]-hexane hydrochloride] | more thermodynamically stable
